Measurements taken from patent US20120219538A1, “STABILIZED PROTEIN FORMULATIONS AND USE THEREOF” (THERAPEOMIC AG, priority 2009, published 2012).
Like-named read-outs stand apart in the source and are kept apart here.

Target: T1, salmon calcitonin (sCT) (Oncorhynchus keta, UniProt P01263)
T1 construct: Salmon calcitonin is a 32-amino acid polypeptide hormone; purchased Therapeomic Inc., Switzerland
T1 sequence (P01263 83-114 limits assumed): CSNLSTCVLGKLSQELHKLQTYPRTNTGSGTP
Type: physicochemical
Conditions: 10 mM sodium citrate buffer pH 6, 1:1 molar ratio; for slope of aggregation curve: Nile red fluorescence at 620 nm; for lag time of aggregation: OD at 450 nm
Protocol: Salmon calcitonin (Therapeomic Inc., Switzerland) in a final concentration of 2.5 mg/ml per well with and without the respective excipients to be tested, i.e. non-conjugated mPEG-amines and non-conjugated hydrophobic headgroups were prepared in 4 different buffer systems: 10 mM sodium acetate pH 5, 10 mM sodium citrate pH 5, 10 mM sodium citrate pH 6, 10 mM sodium phosphate buffer pH 8. Samples are prepared two times and nile red in a final concentration of 1 μM is added to one of each. Aggregation is followed in UV-transparent 96-well plates or 384-well Costar® plates from Corning (Corning Life Sciences, Schiphol, Netherlands) by a microplate reader (Tecan Safire™ microplate reader, Tecan Group Ltd, Männedorf, Switzerland) by monitoring turbidity, nile red fluorescence and intrinsic fluorescence of the protein/peptide drug or the hydrophobic head-group. After finishing the aggregation kinetics, final spectra of nile red fluorescence, UV and protein/peptide drug or hydrophobic head group fluorescence were measured.
Aggregation was checked in absence of any excipient, in presence of equimolar amounts of dansylamide, mPEG-amine 2 kD and dansyl-mPEG 2 kD, respectively.

Substance: salmon calcitonin [sCT]
- slope of aggregation curve (Table 2): 1843 a.u./hrs
- lag time of aggregation (Table 2): 3.5 h
- Nile red fluorescence at 620 nm (Table 2, time 0 hrs): 1058
- OD at 450 nm (Table 2, time 0 hrs): 0.10
- Nile red fluorescence at 620 nm (Table 2, time 9.5 hrs): 18581
- OD at 450 nm (Table 2, time 9.5 hrs): 0.22
- Nile red fluorescence at 620 nm (Table 2, time 20 hrs): 27276
- OD at 450 nm (Table 2, time 20 hrs): 0.63
- Nile red fluorescence at 620 nm (Table 2, time 100 hrs): 25328
- OD at 450 nm (Table 2, time 100 hrs): 0.68
- Nile red fluorescence at 620 nm (Table 2, time 166 hrs): 24729
- OD at 450 nm (Table 2, time 166 hrs): 0.64
- slope of aggregation curve (Table 3, higher detector sensitivity): 5546 a.u./hrs
- lag time of aggregation (Table 3): 4.2 h
- OD at 450 nm (Table 3, time 0 hrs): 0.11
- Nile red fluorescence at 620 nm (Table 3, time 0 hrs, higher sensitivity of the fluorescence detector than Table 2): 4560
- Nile red fluorescence at 620 nm (Table 3, time 5 hrs, higher sensitivity of the fluorescence detector than Table 2): 38483
- OD at 450 nm (Table 3, time 6.2 hrs): 0.15
- OD at 450 nm (Table 3, time 10 hrs): 0.22
- Nile red fluorescence at 620 nm (Table 3, time 10 hrs, higher sensitivity of the fluorescence detector than Table 2): 61019
- Nile red fluorescence at 620 nm (Table 3, time 13.5 hrs, higher sensitivity of the fluorescence detector than Table 2): >65000
- Nile red fluorescence at 620 nm (Table 3, time 20 hrs, higher sensitivity of the fluorescence detector than Table 2): >65000
- OD at 450 nm (Table 3, time 30.5 hrs): 0.49
- OD at 450 nm (Table 3, time 140 hrs): 0.56
